Measurements as given in ChEMBL document CHEMBL4321854, “Discovery of a First-in-Class Mitogen-Activated Protein Kinase Kinase 1/2 Degrader” (J Med Chem, 2019).
pIC50: −log10 of the molar value. Calls of active or inactive are those of the source. The rule behind the calls is not given here.

Experiments:
[1] = target: T1, von Hippel-Lindau disease tumor suppressor/Dual specificity mitogen-activated protein kinase kinase 2/Dual specificity mitogen-activated protein kinase kinase 1 (Homo sapiens) (UniProt P36507+Q02750+P40337); assay: Protac activity against VHL/MEK1/2 in human SK-MEL-28 cells harboring with BRAF V600E variant assessed as phosphorylation of ERK at T202/Y204 residues at 0.3 uM pretreated with NEDD8-activating enzyme inhibitor, MLN4924 for 2 hrs followed by incubation with compound for 10 hrs by Western blot analysis; type: cell-based
T1 sequence (P36507 whole entry, looked up): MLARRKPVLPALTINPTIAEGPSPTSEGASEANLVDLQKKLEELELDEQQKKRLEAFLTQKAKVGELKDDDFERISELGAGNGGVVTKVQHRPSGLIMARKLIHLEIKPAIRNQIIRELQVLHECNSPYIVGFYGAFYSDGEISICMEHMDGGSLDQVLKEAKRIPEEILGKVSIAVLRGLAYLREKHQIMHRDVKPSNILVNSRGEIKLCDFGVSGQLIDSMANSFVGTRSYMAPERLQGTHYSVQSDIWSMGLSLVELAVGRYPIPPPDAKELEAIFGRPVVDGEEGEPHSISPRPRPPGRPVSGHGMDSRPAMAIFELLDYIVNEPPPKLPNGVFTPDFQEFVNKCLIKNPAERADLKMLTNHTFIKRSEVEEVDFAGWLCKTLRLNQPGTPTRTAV
T1 sequence (P40337 whole entry, looked up): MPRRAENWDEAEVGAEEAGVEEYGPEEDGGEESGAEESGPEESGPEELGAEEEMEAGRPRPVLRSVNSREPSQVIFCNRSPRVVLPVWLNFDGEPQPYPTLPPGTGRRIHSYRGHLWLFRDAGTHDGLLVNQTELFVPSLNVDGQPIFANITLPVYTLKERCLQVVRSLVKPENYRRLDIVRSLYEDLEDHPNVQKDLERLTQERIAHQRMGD
T1 sequence (Q02750 whole entry, looked up): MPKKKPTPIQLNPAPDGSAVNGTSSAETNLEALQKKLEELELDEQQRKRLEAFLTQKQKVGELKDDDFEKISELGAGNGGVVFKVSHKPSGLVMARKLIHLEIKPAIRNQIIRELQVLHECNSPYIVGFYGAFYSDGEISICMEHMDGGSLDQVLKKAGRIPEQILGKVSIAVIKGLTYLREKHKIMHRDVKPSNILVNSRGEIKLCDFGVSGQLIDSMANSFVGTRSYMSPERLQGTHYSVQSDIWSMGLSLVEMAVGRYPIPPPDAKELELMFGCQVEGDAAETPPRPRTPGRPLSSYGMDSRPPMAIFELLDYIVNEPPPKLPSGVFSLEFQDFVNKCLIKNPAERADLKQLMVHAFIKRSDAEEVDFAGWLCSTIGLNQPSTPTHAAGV

[2] = target: T2, von Hippel-Lindau disease tumor suppressor/Dual specificity mitogen-activated protein kinase kinase 2 (Homo sapiens) (UniProt P36507+P40337); assay: Protac activity against VHL/MEK2 in human SK-MEL-28 cells harboring with BRAF V600E variant assessed as degradation of MEK2 at 0.1 to 0.3 uM after 4 hrs by Western blot analysis; type: cell-based
T2 sequence (P36507 whole entry, looked up): as the sequence (P36507 whole entry, looked up) above
T2 sequence (P40337 whole entry, looked up): as the sequence (P40337 whole entry, looked up) above

[3] = Ratio of Plasma concentration in Swiss albino mouse at 50 mg/kg, ip measured after 8 hrs to GI50 for antiproliferative activity against human UACC257 cells; type: organism-based; conditions: in vivo
[4] = target: T1, von Hippel-Lindau disease tumor suppressor/Dual specificity mitogen-activated protein kinase kinase 2/Dual specificity mitogen-activated protein kinase kinase 1 (Homo sapiens); assay: Protac activity against VHL/MEK1/2 in human COLO205 cells harboring with BRAF V600E variant assessed as reduction in phosphorylation of ERK at T202/Y204 residues after 24 hrs by Western blot analysis; type: cell-based
[5] = target: T3, von Hippel-Lindau disease tumor suppressor/Dual specificity mitogen-activated protein kinase kinase 1 (Homo sapiens) (UniProt Q02750+P40337); assay: Protac activity against VHL/MEK1 in human SK-MEL-28 cells harboring with BRAF V600E variant assessed as degradation of MEK1 at 3 to 5 uM after 24 hrs by Western blot analysis; type: cell-based
T3 sequence (P40337 whole entry, looked up): as above
T3 sequence (Q02750 whole entry, looked up): as the sequence (Q02750 whole entry, looked up) above

[6] = target: T2, von Hippel-Lindau disease tumor suppressor/Dual specificity mitogen-activated protein kinase kinase 2 (Homo sapiens); assay: Protac activity against VHL/MEK2 in human HT-29 cells harboring with BRAF V600E variant assessed as degradation of MEK2 by measuring MEK2 protein level at 0.3 uM pretreated with MEK1/2 inhibitor, PD0325901 for 2 hrs followed by incubation with compound for 10 hrs by Western blot analysis; type: cell-based
[7] = Maximum drug concentration in Swiss albino mouse plasma at 50 mg/kg, ip measured after 0.5 hrs by LC-MS/MS analysis; type: ADME, organism-based; parameters: dose 50 mg/kg, route intraperitoneal
[8] = target: T2, von Hippel-Lindau disease tumor suppressor/Dual specificity mitogen-activated protein kinase kinase 2 (Homo sapiens); assay: Protac activity against VHL/MEK2 in human HT-29 cells harboring with BRAF V600E variant assessed as degradation of MEK2 at 0.3 uM after 3 to 144 hrs by Western blot analysis; type: cell-based
[9] = target: T3, von Hippel-Lindau disease tumor suppressor/Dual specificity mitogen-activated protein kinase kinase 1 (Homo sapiens); assay: Protac activity against VHL/MEK1 in human HT-29 cells harboring with BRAF V600E variant assessed as degradation of MEK1 by measuring MEK1 protein level at 0.3 uM pretreated with proteasome inhibitor, MG-132 for 2 hrs followed by incubation with compound for 10 hrs by Western blot analysis; type: cell-based
[10] = target: T1, von Hippel-Lindau disease tumor suppressor/Dual specificity mitogen-activated protein kinase kinase 2/Dual specificity mitogen-activated protein kinase kinase 1 (Homo sapiens); assay: Protac activity against VHL/MEK1/2 in human SK-MEL-28 cells harboring with BRAF V600E variant assessed as reduction in phosphorylation of MEK at S218/222 residues after 24 hrs by Western blot analysis; type: cell-based
[11] = target: T2, von Hippel-Lindau disease tumor suppressor/Dual specificity mitogen-activated protein kinase kinase 2 (Homo sapiens); assay: Protac activity against VHL/MEK2 in human SK-MEL-28 cells harboring with BRAF V600E variant assessed as degradation of MEK2 by measuring MEK2 protein level at 0.3 uM pretreated with VHL ligand, VH 032 for 2 hrs followed by incubation with compound for 10 hrs by Western blot analysis; type: cell-based
[12] = target: T1, von Hippel-Lindau disease tumor suppressor/Dual specificity mitogen-activated protein kinase kinase 2/Dual specificity mitogen-activated protein kinase kinase 1 (Homo sapiens); assay: Protac activity against VHL/MEK1/2 in human UACC257 cells harboring with BRAF V600E variant assessed as reduction in phosphorylation of MEK at S218/222 residues after 24 hrs by Western blot analysis; type: cell-based
[13] = target: von Hippel-Lindau disease tumor suppressor/Dual specificity mitogen-activated protein kinase kinase 1 (Homo sapiens, UniProt Q02750+P40337, V600E); assay: (§1) Protac activity against VHL/MEK1 in human UACC257 cells harboring BRAF V600E variant assessed as degradation of MEK1 after 24 hrs by Western blot analysis; type: cell-based
Sequence of von Hippel-Lindau disease tumor suppressor/Dual specificity mitogen-activated protein kinase kinase 1 (P40337 whole entry, looked up, stated change not applied): as the sequence (P40337 whole entry, looked up) above
Sequence of von Hippel-Lindau disease tumor suppressor/Dual specificity mitogen-activated protein kinase kinase 1 (Q02750 whole entry, looked up, stated change not applied): as the sequence (Q02750 whole entry, looked up) above

[14] = target: T3, von Hippel-Lindau disease tumor suppressor/Dual specificity mitogen-activated protein kinase kinase 1 (Homo sapiens); assay: as §1; type: cell-based
[15] = target: Dual specificity mitogen-activated protein kinase kinase 1 (Homo sapiens, UniProt Q02750); assay: Inhibition of recombinant full length human His-tagged MEK1 expressed in baculovirus expression system using ERK K52R dead variant as substrate preincubated for 20 mins followed by incubation with 33P-ATP addition for 2 hrs by hotspot kinase assay
Sequence of Dual specificity mitogen-activated protein kinase kinase 1 (Q02750 whole entry): as the sequence (Q02750 whole entry, looked up) above

[16] = target: T3, von Hippel-Lindau disease tumor suppressor/Dual specificity mitogen-activated protein kinase kinase 1 (Homo sapiens); assay: Protac activity against VHL/MEK1 in human SK-MEL-28 cells harboring with BRAF V600E variant assessed as degradation of MEK1 by measuring reduction in MEK1 protein level at 0.3 uM after 8 hrs by Western blot analysis relative to control; type: cell-based; parameters: scale not given: the % may be the effect or the level left
[17] = target: T2, von Hippel-Lindau disease tumor suppressor/Dual specificity mitogen-activated protein kinase kinase 2 (Homo sapiens); assay: (§2) Protac activity against VHL/MEK2 in human COLO205 cells harboring BRAF V600E variant assessed as degradation of MEK2 after 24 hrs by Western blot analysis; type: cell-based
[18] = target: von Hippel-Lindau disease tumor suppressor/Dual specificity mitogen-activated protein kinase kinase 2 (Homo sapiens, UniProt P36507+P40337, V600E); assay: as §2; type: cell-based
Sequence of von Hippel-Lindau disease tumor suppressor/Dual specificity mitogen-activated protein kinase kinase 2 (P36507 whole entry, looked up, stated change not applied): as the sequence (P36507 whole entry, looked up) above
Sequence of von Hippel-Lindau disease tumor suppressor/Dual specificity mitogen-activated protein kinase kinase 2 (P40337 whole entry, looked up, stated change not applied): as the sequence (P40337 whole entry, looked up) above

[19] = target: T1, von Hippel-Lindau disease tumor suppressor/Dual specificity mitogen-activated protein kinase kinase 2/Dual specificity mitogen-activated protein kinase kinase 1 (Homo sapiens); assay: Protac activity against VHL/MEK1/2 in human HT-29 cells harboring with BRAF V600E variant assessed as reduction in phosphorylation of MEK at S218/222 residues at 0.3 uM incubated for 6 days by Western blot analysis; type: cell-based
[20] = target: T1, von Hippel-Lindau disease tumor suppressor/Dual specificity mitogen-activated protein kinase kinase 2/Dual specificity mitogen-activated protein kinase kinase 1 (Homo sapiens); assay: Protac activity against VHL/MEK1/2 in human UACC257 cells harboring with BRAF V600E variant assessed as reduction in phosphorylation of ERK at T202/Y204 residues after 24 hrs by Western blot analysis; type: cell-based
[21] = target: T1, von Hippel-Lindau disease tumor suppressor/Dual specificity mitogen-activated protein kinase kinase 2/Dual specificity mitogen-activated protein kinase kinase 1 (Homo sapiens); assay: Protac activity against VHL/MEK1/2 in human SK-MEL-28 cells harboring with BRAF V600E variant assessed as in phosphorylation of MEK at S218/222 residues at 0.3 uM pretreated with VHL ligand, VH 032 for 2 hrs followed by incubation with compound for 10 hrs by Western blot analysis; type: cell-based
[22] = target: T1, von Hippel-Lindau disease tumor suppressor/Dual specificity mitogen-activated protein kinase kinase 2/Dual specificity mitogen-activated protein kinase kinase 1 (Homo sapiens); assay: Protac activity against VHL/MEK1/2 in human HT-29 cells harboring with BRAF V600E variant assessed as phosphorylation of MEK at S218/222 residues at 0.3 uM pretreated with NEDD8-activating enzyme inhibitor, MLN4924 for 2 hrs followed by incubation with compound for 10 hrs by Western blot analysis; type: cell-based
[23] = target: T3, von Hippel-Lindau disease tumor suppressor/Dual specificity mitogen-activated protein kinase kinase 1 (Homo sapiens); assay: Protac activity against VHL/MEK1 in human SK-MEL-28 cells harboring with BRAF V600E variant assessed as degradation of MEK1 by measuring reduction in MEK1 protein level at 0.3 uM after 4 hrs by Western blot analysis relative to control; type: cell-based; parameters: scale not given: the % may be the effect or the level left
[24] = target: T1, von Hippel-Lindau disease tumor suppressor/Dual specificity mitogen-activated protein kinase kinase 2/Dual specificity mitogen-activated protein kinase kinase 1 (Homo sapiens); assay: Protac activity against VHL/MEK1/2 in human HT-29 cells harboring with BRAF V600E variant assessed as phosphorylation of MEK at S218/222 residues at 0.3 uM pretreated with MEK1/2 inhibitor, PD0325901 for 2 hrs followed by incubation with compound for 2 hrs by Western blot analysis; type: cell-based
[25] = target: T3, von Hippel-Lindau disease tumor suppressor/Dual specificity mitogen-activated protein kinase kinase 1 (Homo sapiens); assay: Protac activity against VHL/MEK1 in human HT-29 cells harboring with BRAF V600E variant assessed as degradation of MEK1 by measuring reduction in MEK1 protein level at 0.3 uM after 4 hrs by Western blot analysis relative to control; type: cell-based; parameters: scale not given: the % may be the effect or the level left
[26] = target: T3, von Hippel-Lindau disease tumor suppressor/Dual specificity mitogen-activated protein kinase kinase 1 (Homo sapiens); assay: Protac activity against VHL/MEK1 in human COLO205 cells harboring with BRAF V600E variant assessed as degradation of MEK1 at 3 to 5 uM after 24 hrs by Western blot analysis; type: cell-based

Structure (SMILES): Cc1ncsc1-c1ccc([C@H](C)NC(=O)[C@@H]2C[C@@H](O)CN2C(=O)[C@@H](NC(=O)CCCCCCCCCCNCCCONC(=O)c2ccc(F)c(F)c2Nc2ccc(I)cc2F)C(C)(C)C)cc1
- Activity [1]: inactive
- Activity [2]: Active
- Ratio [3]: 3 to 20
- Activity [4]: Dose-dependent effect
- Activity [5]: Active
- Activity [6]: inactive
- Cmax [7]: 1400 nM
- Activity [8]: Active
- Activity [9]: inactive
- Activity [10]: Dose-dependent effect
- Activity [11]: inactive
- Activity [12]: Dose-dependent effect
- DC50 [13]: 56 nM
- Activity [14]: Dose-dependent effect
- pIC50 [15]: 5.82
- Activity [16]: > 80%
- Activity [17]: Dose-dependent effect
- DC50 [18]: 11 nM
- Activity [19]: Active
- Activity [20]: Dose-dependent effect
- Activity [21]: inactive
- Activity [22]: inactive
- Activity [23]: > 50%
- Activity [24]: inactive
- Activity [25]: > 50%
- Activity [26]: Active
